Assay results: the CATMoS acute toxicity set (Mansouri et al. 2021)

Assay: GHS categories as the set defines them, by LD50: 1 up to 5, 2 up to 50, 3 up to 300, 4 up to 2000, 5 above 2000 mg/kg
Details: rat; in vivo; po

SMILES | GHS category
CCCCC(CC)C(=O)OOC(C)(C)C (stereo not drawn) | 5
CCOC(=O)C(C)(C)c1ccccc1 | 5
CC1CC(OC(=O)C(Oc2ccccc2Cl)C(C)C)CC(C)(C)C1 (stereo not drawn) | 5
CCOC(=O)CCSc1cc(NC(=O)C(=O)OCC)ncn1 | 4
CC(C)Cc1ccc(OP(=O)(Oc2ccc(CC(C)C)cc2)Oc2ccc(CC(C)C)cc2)cc1 | 5
CCCCCCCCCCCC(=O)OOC(=O)CCCCCCCCCCC | 5
CN1C(C(=O)Nc2ccccn2)=C(OC(=O)C(C)(C)C)c2sccc2S1(=O)=O | 2
C=CCOC(=O)Nc1nc(N2CC=CCC2)cc2nc(=O)on12 | 5
CCCC(=NOCC(C)Oc1ccc(Cl)cc1)C1=C(O)CC(C2CCCSC2)CC1=O (stereo not drawn) | 5
CCOC(=O)Oc1c(OC)cc(C(=O)O[C@@H]2C[C@@H]3CN4CCc5c([nH]c6cc(OC)ccc56)[C@H]4C[C@@H]3[C@H](C(=O)OC)[C@H]2OC)cc1OC | 5
CCCCCCC1CCCC1=O (stereo not drawn) | 5
Cc1ccc(Nc2nc(Nc3ccc(C)cc3)c(N=Nc3ccccc3C(F)(F)F)c(C)c2C#N)cc1 | 5
CC(Oc1ccc(Oc2ncc(C(F)(F)F)cc2Cl)cc1)C(=O)O (stereo not drawn) | 4
Cn1cc(C(=O)Cl)c(C(F)F)n1 | 5
CCCCCCCCCC(=O)Oc1ccc(C(=O)O)cc1 | 5
COc1ccc(C(=O)Nc2ccccc2)cc1N | 5
Cc1ccc(OC(=O)c2ccccc2OC(N)=O)cc1 | 5
FC(F)(F)c1cccc(N2CCc3ccccc3C2c2ccccc2)c1 (stereo not drawn) | 4
CC(C#N)c1cccc(C(=O)Cl)c1 (stereo not drawn) | 5
O=C1c2ccccc2C2=Nc3cccc4cccc(c34)N12 | 5
Oc1ccc(C(O)CNCCCCCCNCC(O)c2ccc(O)c(O)c2)cc1O (stereo not drawn) | 5
COc1ccccc1C1NC(=O)C(C)S1 (stereo not drawn) | 5
CC(C)OC(=O)C(C)(C)Br | 5

SMILES | GHS category
CNc1ccc(C(=O)c2cccs2)cc1O | 5
CCCCOC(=O)CC(O)C(=O)OCCCC (stereo not drawn) | 5
Cc1ccc(C(=O)O)c(Oc2ccccc2CC(=O)O)c1C | 5
CCOC(=O)CCN(C(=O)c1ccc2c(c1)nc(CCl)n2C)c1ccccn1 | 4
Nc1cc(Cl)c(Cl)cc1S(=O)(=O)O | 5
Oc1c(I)cc(Cl)c2cccnc12 | 5
O=CN(O)CCCP(=O)(O)O | 5
CNC(=O)C(=NNc1ccc(Cl)c(Cl)c1)C(C)=O | 5
CSC(C)=NOC(=O)N(C)SN(C)C(=O)Oc1ccccc1OC(=O)N(C)SN(C)C(=O)ON=C(C)SC | 4
Cc1cc(=O)[nH]c2cc(OCCCN3CCC(Cc4ccccc4)CC3)ccc12 | 4
COC(=O)C(C)O (stereo not drawn) | 5
CCCCCCCCCCCCCCCc1cccc(OC(=O)c2ccccc2OC(N)=O)c1 | 5
C[C@]12CC[C@@H]3c4ccc(O)cc4CC[C@H]3[C@@H]1C[C@@H](O)[C@@H]2O | 5
O=c1nc2nc[nH]n2c(CO)c1Cc1ccc(-c2ccccc2-c2nn[nH]n2)cc1 | 4
CC(=O)OCCOC(C)C | 4
Clc1ccccc1-c1nnc(-c2ccccc2Cl)nn1 | 5
Cc1c(S(C)(=O)=O)ccc(C(=O)O)c1Cl | 5
Nc1c(Br)cc([N+](=O)[O-])cc1Br | 4
CCCCOC(=O)C(C)O (stereo not drawn) | 5
CCCCOC(=O)c1ccc(-n2nc(OCCN(CC)CC)c3ccccc32)cc1 | 4
COc1ccccc1OC(=O)Cc1ccc(C(=O)c2ccc(C)cc2)n1C | 4
CC(=O)Oc1ccc(C(=C2CCCCC2)c2ccc(OC(C)=O)cc2)cc1 | 5
OC1CCC2CCCCC2C1 (stereo not drawn) | 5

SMILES | GHS category
CCCc1c(Cc2ccc(-c3ccccc3-c3nn[nH]n3)cc2)c(N=[N+]=[N-])nc2ncnn12 | 4
CC1CC(OC(=O)COc2ccc(F)cc2)CC(C)(C)C1 (stereo not drawn) | 5
C=CCC(C)C | 5
CC(=O)N(C)C(=O)Oc1cccc2c1OC(C)(C(C)(C)C)O2 (stereo not drawn) | 4
Cc1cccc2c1NC(=O)C2(c1ccc(OS(=O)(=O)O)cc1)c1ccc(OS(=O)(=O)O)cc1 | 5
COc1ccc2c(c1)CCN(c1ccccc1)C2c1cccc(Cl)c1 (stereo not drawn) | 4
O=C1NC(=O)c2cccc3cccc1c23 | 5
CCCCOC(=O)C(=O)[C@H]1[C@H](C)C[C@H]2[C@@H]3C[C@H](F)C4=CC(=O)C=C[C@]4(C)[C@H]3[C@@H](O)C[C@@]21C | 5
CCNC(=O)[C@@H]1CCCN1C(=O)[C@H](CCCN=C(N)N)NC(=O)[C@H](CC(C)C)NC(=O)[C@@H](COC(C)(C)C)NC(=O)[C@H](Cc1ccc(O)cc1)NC(=O)[C@H](CO)NC(=O)[C@H](Cc1c[nH]c2ccccc12)NC(=O)[C@H](Cc1cnc[nH]1)NC(=O)[C@@H]1CCC(=O)N1 | 4
O=C(Nc1ccc(NC(=O)c2cc3ccccc3c(N=Nc3cc(Cl)ccc3Cl)c2O)c(Cl)c1)c1cc2ccccc2c(N=Nc2cc(Cl)ccc2Cl)c1O | 5
CCC(=O)NP(=O)(OC)SC (stereo not drawn) | 4
CC(C)C1=CC23CCC4C(C)(C(=O)N5CCOCC5)CCCC4(C)C2CC1C1C(=O)OC(=O)C13 (stereo not drawn) | 5
CCCC1CCC(=O)O1 (stereo not drawn) | 5
CCOC(=O)C(=O)Nc1cc(OC)ncn1 | 4
CN(CCCN1c2ccccc2CCc2ccccc21)CC(=O)c1ccc(Cl)cc1 | 4
CC(C)CCC1CCC(O)CC1 (stereo not drawn) | 5
C=CCCCCCCCCC(=O)OCC | 5
CCO[Si](CC(C)C)(OCC)OCC | 5
CC(C)(C)OOC(C)(C)C | 5
CC(=O)OCC(=O)[C@@]1(O)CC[C@H]2[C@@H]3CCC4=CC(=O)CC[C@]4(C)[C@@]3(F)[C@@H](O)C[C@@]21C | 4
OC(c1ccccc1)c1ccc(-c2ccccc2)cc1 (stereo not drawn) | 5
C=CCc1cc(C(C)(C)c2ccc(O)c(CC=C)c2)ccc1O | 5
O=C(OCCOCCO)c1ccccc1Nc1ccc(O)c(C(F)(F)F)c1 | 4

SMILES | GHS category
C=COCCCN | 4
Cc1ccc(-n2nccn2)c(C(=O)O)c1 | 5
CCCN(C=Nc1cccc(=O)[nH]1)CCC | 5
Cc1ccc(C(C)C)cc1OC(=O)c1ccccc1Nc1cccc(C)c1C | 5
CCCc1c(Cc2ccc(-c3ccccc3-c3nn[nH]n3)cc2)c(=O)nc2nc(CC)[nH]n12 | 4
CCOC(C)(C)CC | 5
CN1CCN(CC(=O)N2c3ccccc3C(=O)Nc3cccnc32)CC1 | 5
CC(C)(Sc1cc(C(C)(C)C)c(O)c(C(C)(C)C)c1)Sc1cc(C(C)(C)C)c(O)c(C(C)(C)C)c1 | 5
Cc1nc(N)sc1C(=O)N(C(C)C)C(C)C | 4
CC1CC(OC(=O)c2ccccc2O)CC(C)(C)C1 (stereo not drawn) | 5
CCOC(=O)C(F)F | 5
O=[N+]([O-])c1ccc(C(O)C(CO)N=Cc2ccc(N(CCCl)CCCl)cc2)cc1 (stereo not drawn) | 5
COc1ccccc1NC(=O)C(N=Nc1ccc(Cl)cc1[N+](=O)[O-])C(C)=O (stereo not drawn) | 5
CC1(C)S[C@@H]2[C@H](NC(=O)[C@H](N)c3ccccc3)C(=O)N2[C@H]1C(=O)OCOC(=O)[C@@H]1N2C(=O)C[C@H]2S(=O)(=O)C1(C)C | 5
OCCn1c(C=Cc2nc3ccccc3[nH]2)nc2ccccc21 | 5
CCCCOc1nn(-c2cccc(C(F)(F)F)c2)c2ncccc12 | 4
C[C@@H]1CC[C@@]2(OC1)O[C@H]1[C@@H](O)[C@H]3[C@@H]4CC[C@H]5C[C@@H](O[C@@H]6O[C@H](CO)[C@H](O[C@@H]7O[C@H](CO)[C@@H](O)[C@H](O[C@@H]8OC[C@@H](O)[C@H](O)[C@H]8O)[C@H]7O[C@@H]7O[C@H](CO)[C@@H](O)[C@H](O[C@@H]8O[C@H](CO)[C@@H](O)[C@H](O)[C@H]8O)[C@H]7O)[C@H](O)[C@H]6O)[C@H](O)C[C@]5(C)[C@H]4CC[C@]3(C)[C@H]1[C@@H]2C | 3
C=CC(C)(O)CCC=C(C)CC(C)C (stereo not drawn) | 5
CO[Si](CCCCl)(OC)OC | 5
Cc1cccc(Nc2cc(Cl)nc(SCC(=O)NCCO)n2)c1C | 5
C[C@H]1COc2c(N3C[C@@H](N)C4(CCC4)C3)c(F)cc3c(=O)c(C(=O)O)cn1c23 | 5
CC(C)=CCC/C(C)=C/COCC=O | 5
CCN(CC)CCC1=NC(=C2C=CC(=O)C=C2)NO1 | 5

SMILES | GHS category
CCCCCCCCCCCCN1CCCCCC1=O | 5
CC(C)CCCCCCCCCCCCCCCOC(=O)CCCCCCCCCCCCCCC(C)C | 5
C=CC(=O)OCC(CC)(COCC(CC)(COC(=O)C=C)COC(=O)C=C)COC(=O)C=C | 5
C=CC(C)(CCC=C(C)C)OC(C)OCC (stereo not drawn) | 5
CCCCCCCCOC(=O)c1ccc(C(=O)OCCCCCCCC)c(C(=O)OCCCCCCCC)c1 | 5
CC=COC | 5
CO/N=C(\C(=O)N[C@@H]1C(=O)N2C(C(=O)OCOC(=O)C(C)(C)C)=C(/C=C\c3scnc3C)CS[C@H]12)c1csc(N)n1 | 5
CCOC(=O)C(=O)Nc1cc(SC)nc(C)n1 | 4
CC(C)C(=O)c1ccc2cc(CC(=O)O)ccc2c1 | 5
O=C1CCCCCN1C(=O)c1cccc(C(=O)N2CCCCCC2=O)c1 | 5
CCCCCCCC(O)CCO (stereo not drawn) | 5
CCOC(=O)C1CN(C)C2CCCC(C)N2C1=O (stereo not drawn) | 5
O=C(O)c1cc(C(=O)O)cc([N+](=O)[O-])c1 | 5
CC1Oc2cc(C(=O)c3ccccc3)ccc2NC1=O (stereo not drawn) | 5
CC1(C)CCC(=Cc2ccc(Cl)cc2)C1(O)Cn1cncn1 (stereo not drawn) | 5
FC(F)(F)OC(F)(Cl)C(F)(F)Cl (stereo not drawn) | 5
COc1ccc(N=NC(C(C)=O)C(=O)Nc2ccccc2OC)c([N+](=O)[O-])c1 (stereo not drawn) | 5
CCN(CC)CCOC(=O)c1ccc(-n2c(C)nc3ccccc3c2=O)cc1 | 5
CCCCCCCC(=O)OCCCCCC | 5
CC(C)=CCCC(C)C=O (stereo not drawn) | 5
CC1(C)C=C(n2ccccc2=O)c2cc(C#N)ccc2C1=O | 3
